Experimental data: the supplement of paper PMC4449167
± gives the standard deviation of the averaged measurements.

System: WB-F344
Assay: gap junctional intercellular communication (dye spread) relative to vehicle control (fraction of control); higher = more gap junction communication (less inhibition)
Method: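 Confluent WB-F344 rat liver epithelial cells were pretreated with vehicle, D609 (PC-PLC inhibitor, 50 µM, 20 min), U0126 (MEK1/2 inhibitor, 20 µM, 30 min) or resveratrol (100 µM, 15 min), then exposed to a GJIC-dysregulating chemical at the listed dose and time. GJIC was measured by scalpel loading-dye transfer with Lucifer Yellow (3 min), and the dye-spread area was quantified in ImageJ as a fraction of the vehicle control (FOC). Individual values come from at least 3 independent experiments.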

[1] = pretreatment: D609+GJIC dysreg.
[2] = pretreatment: U0126+GJIC dysreg.

SMILES	gap junctional intercellular communication [1]	gap junctional intercellular communication (pretreatment: GJIC dysreg.)	gap junctional intercellular communication (pretreatment: RES+GJIC dysreg.)	gap junctional intercellular communication [2]	gap junctional intercellular communication (dose note: (30 uM), pretreatment: D609+GJIC dysreg.)	gap junctional intercellular communication (dose note: (30 uM), pretreatment: GJIC dysreg.)	gap junctional intercellular communication (dose note: (30 uM), pretreatment: RES+GJIC dysreg.)	gap junctional intercellular communication (dose note: (30 uM), pretreatment: U0126+GJIC dysreg.)	gap junctional intercellular communication (dose note: (50 uM), pretreatment: D609+GJIC dysreg.)	gap junctional intercellular communication (dose note: (50 uM), pretreatment: GJIC dysreg.)	gap junctional intercellular communication (dose note: (50 uM), pretreatment: RES+GJIC dysreg.)	gap junctional intercellular communication (dose note: (50 uM), pretreatment: U0126+GJIC dysreg.)
O=C(O)C(F)(F)C(F)(F)C(F)(F)C(F)(F)C(F)(F)C(F)(F)C(F)(F)C(F)(F)C(F)(F)F [Perfluorodecanoic acid] (compound abbreviation / co-treatment: PFDA, exposure (dose, time): 50 µM, 20 min)	0.46 ± 0.12	0.22 ± 0.033	0.225 ± 0.023	0.239 ± 0.046	–	–	–	–	–	–	–	–
O=S(=O)(O)C(F)(F)C(F)(F)C(F)(F)C(F)(F)C(F)(F)C(F)(F)C(F)(F)C(F)(F)F [Perfluorooctanesulfonic acid] (compound abbreviation / co-treatment: PFOSA, exposure (dose, time): 40 µM, 20 min)	0.287 ± 0.045	0.279 ± 0.041	0.329 ± 0.097	0.289 ± 0.037	–	–	–	–	–	–	–	–
O=C(O)C(F)(F)C(F)(F)C(F)(F)C(F)(F)C(F)(F)C(F)(F)C(F)(F)F [Perfluorooctanoic acid] (compound abbreviation / co-treatment: PFOA, exposure (dose, time): 80 µM, 10 min)	0.661 ± 0.15	0.24 ± 0.054	0.743 ± 0.12	0.44 ± 0.12	–	–	–	–	–	–	–	–
c1cc2ccc3cccc4ccc(c1)c2c34 [Pyrene] (compound abbreviation / co-treatment: Pyr, exposure (dose, time): 70 µM, 10 min)	0.844 ± 0.084	0.375 ± 0.078	0.802 ± 0.099	0.376 ± 0.061	–	–	–	–	–	–	–	–
CC(C)C[C@H](NC(=O)[C@H](CC(C)C)NC(=O)[C@H](Cc1ccccc1)NC(=O)[C@@H](N)CO)C(=O)N[C@@H](CCCN=C(N)N)C(=O)N[C@@H](CC(N)=O)C(=O)O [Thrombin receptor activator peptide-6] (compound abbreviation / co-treatment: TRAP-6, exposure (dose, time): 50 µM, 30 min)	0.588 ± 0.089	0.4 ± 0.058	0.967 ± 0.04	1.05 ± 0.036	–	–	–	–	–	–	–	–
CC1(C)[C@@H](O)CC[C@]2(C)[C@H]3C(=O)C=C4[C@@H]5C[C@@](C)(C(=O)O)CC[C@]5(C)CC[C@@]4(C)[C@]3(C)CC[C@@H]12 [ß-Glycyrrhetinic acid] (compound abbreviation / co-treatment: BGA, exposure (dose, time): 30-50 µM, 15 min)	–	–	–	–	0.242 ± 0.036	0.353 ± 0.03	0.302 ± 0.023	0.344 ± 0.053	0.225 ± 0.034	0.242 ± 0.042	0.243 ± 0.038	0.269 ± 0.028
